{
  "source": "patent US20100041745A1",
  "about": "“Aigialomycin D and Derivatives Thereof and Their Use in Treating Cancer or Malaria or a Microbial Infection” (priority 2006, published 2010)",
  "origin": "cited, not measured here",
  "data": [
    {"molecule": "C[C@H]1C/C=C/[C@@H](O)[C@@H](O)CC/C=C/c2cc(O)cc(O)c2C(=O)O1", "note": "[aigialomycin D, Aigialomycin D]", "values": [
      {"measurement": "IC50 against Vero cells (antitumour activity)", "setting": "Vero cells", "value": 1.8, "unit": "µg/mL"},
      {"measurement": "IC50 against P. falciparum (anti-malarial activity)", "setting": "P. falciparum", "value": 6.6, "unit": "µg/mL"},
      {"measurement": "IC50 against KB cells (antitumour activity)", "setting": "KB cells", "value": 3.0, "unit": "µg/mL"}
    ]}
  ]
}
